Test results published in US20060128997A1, “New method for the preparation of 1,5-bis(4-hydroxy-3-metoxy-phenyl)-penta-1,4-dien-3-one and derivatives with antitumoral properties” (priority 2003, published 2006).
Values joined by “and” are separate entries in the source; they are usually repeats but may differ in a detail not shown here. Equal values may be shown once. “Also recorded” adds a separate entry of the source. Read-outs that look alike come from different tables or passages of the source.

How the values were obtained:
Colon L5-26 = settings: literature values (Banskota, Kimoto); unit not given; cited from earlier work
HT-1080 = settings: literature values (Banskota, Kimoto); unit not given; cited from earlier work
[1] = test system: all cell lines (nine different types of human cancer); assay: Antiproliferate test, sulforrodamina B essay, whole panel of cell lines; format: cell-based; settings: for cytostatic / antiproliferate activity (growth inhibition), in words / concentration from which cytostatic activity (growth inhibition) is presented: all cell lines; for concentration from which cytotoxic / killer cell activity (cellular death) is presented: all cell lines of the panel; for selectivity for the studied cell lines, in words: panel of cell lines
Description: (§1) Methodology utilized to perform the antitumoral tests:
(§2) Report of the Antiproliferate Test in Tumoral Human Cells with the Sulforrodamina B Essay
(§3) The cell lines used in the essays, described in the table 1, were maintained in recipients of 25 cm^2 (Nunc®), with 5 mL of culture medium RPMI 1640 supplemented with 5% bovine foetal serum (RPMI/SFB), at 37° C. in atmosphere of 5% of CO2 and 100% of humidity.
(§4) […] of cells in medium RPMI/SFB with 50 μg/mL of Gentamicin were inoculated in its respectives densities of inoculation, in plates of 96 compartments and incubated for 24 hours at 37° C. in atmosphere of 5% of CO2 and 100% of humidity.
(§5) After 24 hours, […] of the test substance were added in the following concentrations of 250; 25; 2.5; 0.2 μg/mL diluted in RPMI/SFB/gentamicin. In this moment the reading of one plate was performed for the determination of the T0 (cell control in the moment of the adding the samples). The other plates were incubated for 48 hours After this period the experiment was paused by adding the trichlorine acetic acid to further determine the protein content by means of […] essay with the sulforrodamina B.
(§6) The stocked solutions were developed by diluting the samples in dimethyl sulfoxide (DMSO) in the concentration of 0.1 g/mL. That solution was diluted by 400 times in RPMI/SFB/gentamicina to be added in the plates of 96 compartments being obtained so the a ideal concentration of DMSO (Skehan e cols. 1990).
(§7) At the end of the test, the plates of 96 compartments were centrifuged for 3 minutes at 2000 rpm, and they were fixed with 50 μL of a solution at 50% of trichloroacetic acid (TCA) at 4° C. To complete the cellular fixation, the plates were incubated for 1 hour at 4° C.
(§8) The plates were submitted to four consecutive washes with distillated water to remore the residues of TCA, medium, SFB and secondary metabolic and maintained at room temperature until the complete drying.
(§9) A coloration was performed by the adding of 50 μL SRB at 0.4% (weight/volume) diluted in acetic acid at 1%, and maintained at 4° C. for 30 minutes. Further, they were washed by 4 consecutive times with a solution of acetic acid 1%. The residue of the washing of the solution was removed and the plates were dried again at room temperature. The colorant linked to the cellular protein was diluted with a solution of Trizma Base (Sigma®) in concentration of […] and pH 10.5 for 5 minutes in ultrasonic bath. The spectrophotometric of absorbancy reading was performed in 560 nm in a micro plates lector (Labsystems Labsystems Multiskan® MCC/340).
(§10) The absorbancy averages were assessed having discounted its respective nulls and by means of the formula shown below was determined the growth inhibition (IC) of each tested sample.
(§11) If T≧T0 but <C, the drug was cytostatic and the formula used is 100×[(T−To)/(C−T0)]
(§12) If T<T0 the drug was cytotoxic and the formula used is […]
(§13) Considering that T is the absorbency average of the treated cell C is the cell control and T0 is the cell control in the addition day.
(§14) The obtained result was subtracted from 100% so obtaining the percentage of growth inhibition. The samples were considered actives since they presented growth inhibition dependant dose higher than 50% and selective lineage, that is, the preferential activity for only one type of tumoral cell or with cytostatic and/or killer cell effect well distinguished among the cell lines.
(§15) All the assays were performed in triplicates so that the presented results make reference to a representative experiment. The standard deflection from the average was always lower than 5%.

UACC62 (Melanoma) = assay: Antiproliferate test in tumoral human cells, sulforrodamina B essay; format: cell-based
Description: as §1, §2, §3, §4, §5, §6, §7, §8, §9, §10, §11, §12, §13, §14, §15

[2] = test system: NCIADR (Mamma tumor which expresses the phenotype resistance against multiple drugs); assay: as above; format: cell-based; settings: for growth inhibition of the Mama NCI-ADR cell line, in words: resistance against multiple drugs
Description: as §1, §2, §3, §4, §5, §6, §7, §8, §9, §10, §11, §12, §13, §14, §15

NCI460 (Lung tumor) = assay: as above; format: cell-based
Description: as §1, §2, §3, §4, §5, §6, §7, §8, §9, §10, §11, §12, §13, §14, §15

[3] = test system: MCF7 (Normal mamma tumor); assay: as above; format: cell-based
Description: as §1, §2, §3, §4, §5, §6, §7, §8, §9, §10, §11, §12, §13, §14, §15

[4] = Acute toxicity test (LD50, body weight, deaths); format: in vivo, albinic swiss mouses; settings: for Initial Weight, Average ± dpm / Initial Weight, single animal: beginning of the test; for Final Weight, Average ± dpm / Final Weight, single animal: ending of the test
Description: Also a toxicological test with the sample denominated 37 compound (Acute Toxicity, LD50, via intraperitoneal).
Methodology utilized to perform the toxicological tests:
10 albinic swiss mouses are used, of the male gender, weighting approximately 25 g, for each of the treated groups and control;
Adaptation period: the animals are maintained in the tests room at least for 07 days before the beginning of the essay;
The animals are submitted to fast 12 hours before administering the test substance, done by gavage, at the time the animal's body weight is listed.
After the administration the animals are maintained in observation for a minimum period of 14 days.
The number of death animals for each one of the doses is listed and the LD50 is assessed by Litchfield and Wilcoxon's (1949) method and the animal's body weight is listed at the end of the acute toxicity test.

[5] = cited from earlier work
HT29 (Colon tumor) = assay: Antiproliferate test in tumoral human cells, sulforrodamina B essay; format: cell-based; settings: HT-29
Description: as §1, §2, §3, §4
After 24 hours, […] of the test substance were added in the following concentrations of 250; 25; 2.5; 0.2 μg/mL diluted in RPMI/SFB/gentamicin. In this moment the reading of one plate was performed for the determination of the T0 (cell control in the moment of the adding the samples). […]
A coloration was performed by the adding of 50 μL SRB at 0.4% (weight/volume) diluted in acetic acid at 1%, and maintained at 4° C. for 30 minutes. […] The spectrophotometric of absorbancy reading was performed in 560 nm in a micro plates lector (Labsystems Labsystems Multiskan® MCC/340).
The absorbancy averages were assessed having discounted its respective nulls and by means of the formula shown below was determined the growth inhibition (IC) of each tested sample. […]

786-0 (Renal tumor) = assay: as above; format: cell-based
Description: as §1, §2, §3, §4, §5, §6, §7, §8, §9, §10, §11, §12, §13, §14, §15

K-562 (Leukemia) = assay: as above; format: cell-based; settings: K562
Description: as §1, §2, §3, §4, §5, §6, §7, §8, §9, §10, §11, §12, §13, §14, §15

OVCAR-3 (Ovary tumor) = assay: as above; format: cell-based
Description: as §1, §2, §3, §4, §5, §6, §7, §8, §9, §10, §11, §12, §13, §14, §15

PC-3 (Prostate tumor) = assay: as above; format: cell-based; settings: PC-03
Description: as §1, §2, §3, §4, §5, §6, §7, §8, §9, §10, §11, §12, §13, §14, §15

## CC(C)=CCc1cc(C=CC(=O)O)cc2c1OC(C)(C)C(O)C2 (stereo not shown) [Compound 1, 3-hydroxy-2,2-dimethyl-8-prenylchromane-6-propenoic acid]
Colon L5-26
  Cytotoxicity Colon L5-26: 77.07
HT-1080
  Cytotoxicity HT-1080: 71.53

## CC(C)=CCc1cc(C=CC(=O)O)cc2c1OC(C)(C)C=C2 [Compound 2, 2,2-dimethyl-8-prenyl-2H-1-benzopyranbenzopyrene-6-yl-2-propenoic acid]
Colon L5-26
  Cytotoxicity Colon L5-26: 50.22
HT-1080
  Cytotoxicity HT-1080: 46.86

## CC(C)=CCc1cc(C=CC(=O)O)cc(CC=C(C)C)c1O [Compound 3, 3,5-diprenyl-4-hydroxycinnamic acid]
Colon L5-26
  Cytotoxicity Colon L5-26: 59.32
HT-1080
  Cytotoxicity HT-1080: 45.47

## CC(C)=CCc1cc(C=CC(=O)O)ccc1OC(=O)CCc1ccccc1 [Compound 4, 4-dihydrocinnamoyloxy-3-prenylcinnamic acid]
Colon L5-26
  Cytotoxicity Colon L5-26: 77.90
HT-1080
  Cytotoxicity HT-1080: 25.94

## COc1cc(C=CC(=O)C=Cc2ccc(O)c(OC)c2)ccc1O [Compound 37, 1,5-bis(4-hydroxy-3-methoxyphenyl)-penta-1,4-dien-3-one]
[1]
  cytostatic / antiproliferate activity (growth inhibition), in words: cytostatic activity (growth inhibition) for all cell lines
  concentration from which cytotoxic / killer cell activity (cellular death) is presented: ≥ 0.25 µg/mL
[1]; listed as 37/01
  cytostatic / antiproliferate activity (growth inhibition), in words: cytostatic activity (growth inhibition) in the concentrations evaluated
UACC62 (Melanoma)
  concentration with cytotoxic activity (cellular death): ≥ 0.25 µg/mL
[2]
  concentration with cytotoxic activity (cellular death): ≥ 0.25 µg/mL
[2]; listed as 37/01
  growth inhibition of the Mama NCI-ADR cell line, in words: strong cytostatic activity
[2]; listed as our product
  growth inhibition of the Mama NCI-ADR cell line, in words: inhibited the growth
NCI460 (Lung tumor)
  concentration with cytotoxic activity (cellular death): ≥ 0.25 µg/mL
[3]
  concentration with cytotoxic activity (cellular death): ≥ 0.25 µg/mL
[4]; 2.5 g/Kg via intraperitoneal
  Deaths (n), single animal: 0
  Initial Weight, Average ± dpm: 24.60 ± 2.51 g
  Initial Weight, single animal: 24.5 g and 25.4 g (2×) and 24.1 g and 26.6 g and 24.8 g and 22.5 g and 29.7 g and 22.4 g and 20.6 g
  Final Weight, Average ± dpm: 27.88 g
  Final Weight, single animal: 26.4 g and 28.0 g and 28.6 g and 27.4 g and 29.0 g and 27.8 g and 25.0 g and 31.2 g and 25.4 g and 22.8 g
[4]; 3.0 g/Kg via intraperitoneal
  Deaths (n), single animal: 0 (9×) and 1
  Initial Weight, Average ± dpm: 25.47 ± 2.43 g
  Initial Weight, single animal: 28.3 g and 30.9 g and 24.6 g and 25.4 g and 25.1 g and 23.2 g and 23.6 g (2×) and 26.0 g and 24.0 g
  Final Weight, Average ± dpm: 27.81 g
  Final Weight, single animal: 30.3 g and 32.5 g and 25.9 g and 28.0 g and 27.9 g and 25.6 g and 26.0 g and 25.8 g and 28.3 g and Death
[4]; 4.0 g/Kg via intraperitoneal
  Deaths (n), single animal: 0 (9×) and 1
  Initial Weight, Average ± dpm: 26.41 ± 3.52 g
  Initial Weight, single animal: 29.8 g and 25.5 g and 33.2 g and 25.9 g and 26.3 g and 28.9 g and 26.7 g and 23.3 g (2×) and 21.2 g
  Final Weight, Average ± dpm: 28.98 g
  Final Weight, single animal: 32.5 g and 26.9 g and 35.9 g and 28.9 g and 29.0 g and 30.2 g and 28.0 g and 25.9 g and 23.5 g and Death
[4]; 5.0 g/Kg via intraperitoneal
  Deaths (n), single animal: 0 (8×) and 1 (2×)
  Initial Weight, Average ± dpm: 23.68 ± 1.42 g
  Initial Weight, single animal: 24.9 g and 21.0 g and 25.4 g and 22.2 g and 24.0 g and 23.8 g and 22.5 g and 23.5 g and 24.2 g and 25.3 g
  Final Weight, Average ± dpm: 25.86 g
  Final Weight, single animal: 25.9 g (2×) and 24.0 g and 27.8 g and 25.6 g and 27.0 g and 25.8 g and 24.9 g and Death (2×)
[4]; from LD50 (5.0-15 g/Kg = practically nontoxic)
  toxicity classification according to Loomis, in words: practically nontoxic
[4]; male, Swiss albino, mouse, in vivo, ip, acute toxicity, via intraperitoneal, linear regression, 14 days of observation
  LD50 at 14 days: 8540 mg/kg

## COc1cccc2c1C(=O)c1c(O)c3c(c(O)c1C2=O)C[C@@](O)(C(=O)CO)C[C@@H]3O[C@H]1C[C@H](N)[C@H](O)[C@H](C)O1 [Doxorubicin, reference compound]
[5]; in vivo
  toxicity, in words: extremely toxic
[5]; species and route not given
  LD50: 20 mg/kg
[2]
  growth inhibition of the Mama NCI-ADR cell line, in words: does not inhibit the growth; also recorded: did not inhibit the growth

## COc1cc(C=CC(=O)C=Cc2ccc(OC(C)=O)c(OC)c2)ccc1OC(C)=O [EHB1, 1,5-bis(3-metoxy-4-acetoxyphenyl)-penta-1,4-dien-3-one]
[1]
  concentration from which cytostatic activity (growth inhibition) is presented: ≥ 0.25 µg/mL
  concentration from which cytotoxic / killer cell activity (cellular death) is presented: ≥ 25 µg/mL
  selectivity for the studied cell lines, in words: not selective
[2]; NCI-ADR cell line, concentration not clearly stated (from 25 μg/mL)
  growth inhibition: around 25%

## COc1cc(C=CC(=O)C=Cc2ccc(OCC=C(C)C)c(OC)c2)ccc1OCC=C(C)C [HB6, 1,5-Bis[3-metoxy-4-(3-methyl-but-2-eniloxy)phenyl]-penta-1,4-dien-3-one]
HT29 (Colon tumor)
  concentration with cytotoxic activity (cellular death): 250 µg/mL
[1]
  concentration from which cytostatic activity (growth inhibition) is presented: ≥ 25 µg/mL
  selectivity for the studied cell lines, in words: cellular selectivity for HT-29 and 786-0 cell lines
786-0 (Renal tumor)
  concentration with cytotoxic activity (cellular death): 250 µg/mL
[2]; NCIADR
  concentration with cytotoxic activity (cellular death): 250 µg/mL
K-562 (Leukemia)
  concentration with cytotoxic activity (cellular death): 250 µg/mL

## COc1ccc(C=CC(=O)C=Cc2ccc(OC)c(OC)c2)cc1OC [HBM1, 1,5-Bis(3,4-dimetoxyphenyl)-penta-1,4-dien-3-one]
[1]
  concentration from which cytostatic activity (growth inhibition) is presented: ≥ 0.25 µg/mL
OVCAR-3 (Ovary tumor)
  concentration with cytotoxic activity (cellular death): 250 µg/mL
PC-3 (Prostate tumor)
  concentration with cytotoxic activity (cellular death): 250 µg/mL
